Reference: patent publication US11406575B2, “Water-free/anhydrous cream shampoo” (Henkel IP & Holding GmbH, priority 2020, dated 2022)

Test: Viscosity, Brookfield RVT Viscometer, Spindle F (Example 6)
Type: physicochemical
Conditions: compared with SCI
Description: Compositions of the inventive shampoos can have a viscosity ranging from 120,000 cps to 3,000,000 cps. Viscosity can be measured using suitable viscometer known to those of skill in the art. The preferred viscosity range is 1,000,000 cps-2,000,000 cps using a Brookfield RVT Viscometer, Spindle F at 0.5 rpm for 90 sec, with around 1,500,000 cps being the most preferred.
The viscosity of various combinations of propanediol, SCI and SLMI was measured using a Brookfield RVT Viscometer, Spindle F.

Effect of an increase in the percentage of SLMI on viscosity of the shampoo compositions: significantly increases the viscosity
SMILES: CCCCCCCCCCCC(=O)OC(C)CS(=O)(=O)[O-].[Na+] (stereo not shown) [SLMI, sodium lauroyl methyl isethionate]
